Where a SMILES comes first, the peptide text is derived from it. [ ]: non-standard residue; d: D form. The star is where a group is joined. Octanoyl = CCCCCCCC(=O)*; Orn = NCCC[C@H](N)C(=O)O
Assays:
Type in all cases: cell-based
[1] = tested on: E. coli ATCC strain 25922; test: Minimal Inhibitory Concentration, microtiter broth dilution; conditions: ATCC strain 25922
Text: (§1) Table I, which follows, indicates the Minimal Inhibitory Concentration (MIC) in […] of various peptides against S.aureus strain ATCC 25923(S), P. aeruginosa strain ATCC 27853(P), E. coli ATCC strain 25922(E), and C. 4albicans (CA). […] The peptides are unsubstituted at the N-terminal; substituted with an acetyl group at the N-terminal, as indicated by Ac-; substituted with an octanoyl group at the N-terminal, as indicated by Oct-; substituted with spinogosine, as indicated by Sph-; substituted with a succinyl group, as indicated by Suc-; substituted with a hexanoyl group, as indicated by Hex-; substituted with a heptanoyl group, as indicated by Hep-; substituted with a valeryl group, as indicated by Val-; substituted with a myristryl group, as indicated by Myr-; or substituted with an ibuprofyl group, as indicated by Ibu-;
(§2) The procedure for the anti-bacterial assay is based upon the guidelines of the National Committee for Clinical Laboratory Standards, Document M7-T2, Volume 8, No. 8, 1988, which document is entirely incorporated herein by reference.
(§3) Stock solutions of peptides, with and without the appropriate substitutions, were prepared at a concentration of 512 μg/ml in sterile deionized distilled water and stored at −70° C.
(§4) The stock peptide solution was diluted in serial dilutions (1:2) down the wells of a microtiter plate so that the final concentrations of peptides in the wells were 0.25, 0.50, 1, 2, 4, 8, 16, 32, 64, 128 and 256 μg/ml. 1-5×10^5 CFUs/ml of either S. aureus ATCC 25923, E. coli ATCC 25922, P. aeruginosa ATCC 27853, or C. albicans, were added to the wells in full strength Mueller Hinton broth (BBL 11443) from a mid-log culture. The inoculum was standardized spectrophotometrically at 600 nm and was verified by colony counts. The plates were incubated for 16-20 hours at 37° C., and the minimal inhibitory concentration (MIC) for each peptide was determined. Minimal inhibitory concentration is defined as the lowest concentration of peptide which produces a clear well in the microtiter plate. The minimal inhibitory concentration of each of the peptides with and/or without the appropriate substitutions is given in Table I below.
(§5) The in vitro anti-microbial activities of the methane sulfonate derivatives were determined according to the methods described in Examples 1 and 2. The activities against ATCC strains of S. aureus, E. coli, P. aeruginosa, and C. albicans, and the hemolysis of red blood cells were compared to the parent compound (Table IV). The activities for Compound 843 (Oct-SEQ ID NO:143) methane sulfonate against clinical strains of P. aeruginosa isolated from cystic fibrosis patients were compared to the parent compound (Table V). The activity for Compound 469 (Oct-SEQ ID NO:27) methane sulfonate against P. gingivalis was compared to the parent compound (Table VI).

[2] = tested on: P. aeruginosa strain ATCC 27853; conditions: ATCC 27853
Text: as §1, §2, §3, §4, §5

[3] = tested on: C. albicans
Text: as §1, §2, §3, §4

Compound | Minimal Inhibitory Concentration E [1] | Minimal Inhibitory Concentration P [2] | Minimal Inhibitory Concentration CA [3]
CCCCCCCC(=O)N[C@@H](CC(C)C)C(=O)N[C@@H](CCCCN)C(=O)N[C@@H](CCCCN)C(=O)N[C@@H](CC(C)C)C(=O)N[C@@H](CC(C)C)C(=O)N[C@@H](CCCCN)C(=O)N[C@@H](CCC(=O)O)C(=O)N[C@@H](CC(C)C)C(=O)N[C@@H](CCCCN)C(=O)N[C@@H](CCCCN)C(=O)N[C@@H](CC(C)C)C(N)=O [Oct-(SEQ ID NO: 131)-NH2] (Octanoyl-LKKLLKELKKL-NH2) | 4 µg/mL | 8 µg/mL | 64 µg/mL
CCCCCCCC(=O)N[C@@H](CC(C)C)C(=O)N[C@@H](CCCCN)C(=O)N[C@@H](CCCCN)C(=O)N[C@@H](CC(C)C)C(=O)N[C@@H](CC(C)C)C(=O)N[C@@H](CCCCN)C(=O)N[C@@H](CCCCN)C(=O)N[C@@H](CC(C)C)C(=O)N[C@@H](CCCCN)C(=O)N[C@@H](CCCCN)C(=O)N[C@@H](CC(C)C)C(=O)N[C@@H](CS)C(N)=O [Oct-(SEQ ID NO: 133)-NH2] (Octanoyl-LKKLLKKLKKLC-NH2) | 32 µg/mL | 32 µg/mL | 128 µg/mL
CCCCCCCC(=O)N[C@@H](CCCCN)C(=O)N[C@@H](CCCCN)C(=O)N[C@@H](Cc1ccccc1)C(=O)NCC(=O)N[C@@H](CCCCN)C(=O)N[C@@H](CCCCN)C(=O)N[C@@H](Cc1ccccc1)C(=O)N[C@H](C(=O)N[C@@H](CCCCN)C(=O)N[C@H](C(=O)N[C@@H](CC(C)C)C(=O)N[C@@H](CCCCN)C(=O)N[C@@H](CCCCN)C(N)=O)[C@@H](C)CC)C(C)C [Oct-(SEQ ID NO: 135)-NH2] (Octanoyl-KKFGKKFVKILKK-NH2) | 64 µg/mL | 8 µg/mL | 64 µg/mL
CCCCCCCC(=O)N[C@@H](CC(C)C)C(=O)N[C@@H](CCCCN)C(=O)N[C@@H](CCCCN)C(=O)N[C@@H](CC(C)C)C(=O)N[C@@H](CC(C)C)C(=O)N[C@@H](CCCCN)C(=O)N[C@@H](CCCCN)C(N)=O [Oct-(SEQ ID NO: 137)-NH2] (Octanoyl-LKKLLKK-NH2) | >256 µg/mL | 256 µg/mL | 256 µg/mL
CCCCCCCC(=O)N[C@@H](CC(C)C)C(=O)N[C@@H](CCCCN)C(=O)N[C@@H](CCCCN)C(=O)N[C@@H](CC(C)C)C(=O)N[C@@H](CC(C)C)C(=O)N[C@@H](CCCCN)C(=O)N[C@@H](CC(C)C)C(=O)N[C@@H](CC(C)C)C(=O)N[C@@H](CCCCN)C(N)=O [Oct-(SEQ ID NO: 138)-NH2] (Octanoyl-LKKLLKLLK-NH2) | 8 µg/mL | 8 µg/mL | 64 µg/mL
CCCCCCCC(=O)N[C@@H](CCCCN)C(=O)N[C@@H](CCCCN)C(=O)N[C@@H](CC(C)C)C(=O)N[C@@H](CC(C)C)C(=O)N[C@@H](CCCCN)C(=O)N[C@@H](CCCCN)C(=O)N[C@@H](CC(C)C)C(=O)N[C@@H](CCCCN)C(=O)N[C@@H](CCCCN)C(=O)N[C@@H](CC(C)C)C(=O)N[C@@H](CC(C)C)C(=O)N[C@@H](CCCCN)C(=O)N[C@@H](CCCCN)C(=O)N[C@@H](CC(C)C)C(N)=O [Oct-(SEQ ID NO: 139)-NH2] (Octanoyl-KKLLKKLKKLLKKL-NH2) | 16 µg/mL | 32 µg/mL | 128 µg/mL
CCCCCCCC(=O)N[C@@H](CC(C)C)C(=O)N[C@@H](CCCN)C(=O)N[C@@H](CCCCN)C(=O)N[C@@H](CC(C)C)C(=O)N[C@@H](CC(C)C)C(=O)N[C@@H](CCCCN)C(=O)N[C@@H](CCCCN)C(=O)N[C@@H](CC(C)C)C(=O)N[C@@H](CCCCN)C(=O)N[C@@H](CCCCN)C(=O)N[C@@H](CC(C)C)C(N)=O [Oct-(SEQ ID NO: 141)-NH2] (Octanoyl-L[Orn]KLLKKLKKL-NH2) | 8 µg/mL | 4 µg/mL | 32 µg/mL

Reference: patent publication US6348445B1, “Biologically active peptides with reduced toxicity in animals and a method for preparing same” (priority 1992, dated 2002)
